Assay results published in US5071643A, “Solvent system enhancing the solubility of pharmaceuticals for encapsulation” (R. P. Scherer Corporation, priority 1987, dated 1991).

Legend:
[1] = Appearance of ibuprofen mixtures in PEG 400 with sodium or potassium hydroxide (visual inspection); assay type: physicochemical
Protocol: Mixtures were prepared in 10 g quantities by dispersing the acidic pharmaceutical agent in polyethylene glycol or polyethylene glycol and glycerin or polyethylene glycol and polyvinylpyrrolidone or polyethylene glycol, glycerin, and polyvinylpyrrolidone. Aqueous solutions of hydroxide were then added.

[2] = Solubility of the basic drug thioridazine in PEG 400 in presence and absence of hydrogen ion

SMILES	Appearance (Room temp) ([1]; 200 mg in 200 mg PEG 400, NaOH 0.1 M/E, water 1.5 wt %, slight ppt)	Appearance (Room temp) ([1]; 200 mg in 200 mg PEG 400, NaOH 0.2 M/E, water 2.8 wt %)	Appearance (Room temp) ([1]; 200 mg in 200 mg PEG 400, NaOH 0.3 M/E, water 4.1 wt %)	Appearance (Room temp) ([1]; 200 mg in 200 mg PEG 400, NaOH 0.4 M/E, water 5.2 wt %)	Appearance (Room temp) ([1]; 200 mg in 200 mg PEG 400, NaOH 0.5 M/E, water 6.6 wt %, solid admixture)	precipitation in presence of sodium hydroxide ([1]; PEG 400, 0.5 or more mole equivalents NaOH)	precipitation in presence of potassium hydroxide ([1]; PEG 400, 1.0 mole equivalents KOH, even at 4° C.)	RESULT at 5° C. ([2]; FORMULA I, Hydrochloric Acid 0.0 mg)	RESULT at 5° C. ([2]; FORMULA II, Hydrochloric Acid 2.4 mg)
CC(C)Cc1ccc(C(C)C(=O)O)cc1 (stereo not drawn) [Ibuprofen, ibuprofen]	Insoluble	Soluble	Soluble	Soluble	Insoluble	precipitation occurs	no precipitation occurs	–	–
CSc1ccc2c(c1)N(CCC1CCCCN1C)c1ccccc1S2 (stereo not drawn) [Thioridazine, thioridazine]	–	–	–	–	–	–	–	INSOLUBLE	SOLUBLE
